Values of other authors as cited in the PKSmart pharmacokinetics tables (Seal et al. 2025).
Where a SMILES comes first, the peptide text is derived from it. Bridges are numbered along the chain shown (N, C = ends). [ ]: non-standard residue; d: D form. ξ: configuration not given here. ξ2Nal = NC(Cc1ccc2ccccc2c1)C(=O)O; ξW = NC(Cc1c[nH]c2ccccc12)C(=O)O; ξThr(3R) = C[C@@H](O)C(N)C(=O)O; ξY = NC(Cc1ccc(O)cc1)C(=O)O; ξK = NCCCCC(N)C(=O)O; ξV = CC(C)C(N)C(=O)O; ξC = NC(CS)C(=O)O

Test: Lombardo, Berellini, Obach 2018, Drug Metab Dispos 46:1466, doi 10.1124/dmd.118.082966
Conditions: human; for MRT / Vd / clearance / half-life: in vivo, iv; for fraction unbound: plasma

## Cc1nnc(SCC2=C(C(=O)O)N3C(=O)C(NC(=O)C(O)c4ccccc4)[C@H]3SC2)s1 (some centres undefined)
  MRT: 0.83 h
  Vd: 0.13 L/kg
  clearance: 2.6 mL/min/kg
  half-life: 1 h

## O=C(O)CSc1nnc(Br)n1-c1ccc(C2CC2)c2ccccc12
  MRT: 3.33 h
  Vd: 0.29 L/kg
  clearance: 1.43 mL/min/kg
  half-life: 5 h
  fraction unbound: 0.02

## C[C@@](O)(/C=C/[C@H]1CC=CC(=O)O1)[C@@H](C[C@@H](O)\C=C/C=C\C=C\CO)OP(=O)(O)O
  MRT: 1.2 h
  Vd: 0.086 L/kg
  clearance: 1.2 mL/min/kg
  half-life: 1.5 h

## CN(C)c1cc(CNCC(C)(C)C)c(O)c2c1C[C@H]1C[C@H]3[C@H](N(C)C)C(O)=C(C(N)=O)C(=O)[C@@]3(O)C(O)=C1C2=O
  MRT: 19.2 h
  Vd: 2.7 L/kg
  clearance: 2.34 mL/min/kg
  half-life: 15 h

## NC(=S)NN=Cc1ncccc1N
  MRT: 2.6 h
  Vd: 0.41 L/kg
  clearance: 2.65 mL/min/kg
  half-life: 1.9 h

## COC(=O)CC[C@@H]1N=C(c2ccccn2)c2cc(Br)ccc2-n2c(C)cnc21
  MRT: 0.5 h
  Vd: 0.44 L/kg
  clearance: 15 mL/min/kg
  half-life: 0.75 h

## CCNC(=O)CCC/C=C\C[C@@H]1[C@@H](/C=C\[C@@H](O)CCc2ccccc2)[C@H](O)C[C@@H]1O
  Vd: 0.67 L/kg
  clearance: 25 mL/min/kg
  half-life: 0.45 h
  fraction unbound: 0.12

## Cc1c(Cl)cccc1Nc1ccccc1C(=O)O
  MRT: 1.13 h
  Vd: 0.16 L/kg
  clearance: 2.37 mL/min/kg
  half-life: 2.15 h
  fraction unbound: 0.003

## CC1(C)[C@H]2CC[C@@]3(C)C(C(=O)C=C4C5C[C@](C)(C(=O)O)CC[C@@]5(C)CC[C@@]43C)[C@]2(C)CC[C@H]1O[C@H]1OC(C(=O)O)[C@@H](O)[C@H](O)[C@H]1O[C@@H]1OC(C(=O)O)[C@@H](O)[C@H](O)[C@H]1O (some centres undefined)
  MRT: 30.9 h
  Vd: 0.09 L/kg
  clearance: 0.05 mL/min/kg
  half-life: 23.1 h

## CN(CC(N)=O)C(=O)N(CCCl)N=O
  MRT: 1.4 h
  Vd: 0.76 L/kg
  clearance: 9 mL/min/kg
  half-life: 1 h

## C[C@]12C[C@]3(O)O[C@@H](O1)[C@@]1(COC(=O)c4ccccc4)[C@@H]3C[C@]12O[C@@H]1O[C@H](CO)[C@@H](O)[C@H](O)[C@H]1O
  fraction unbound: 0.77

## O=C(O)CCCCON=C(c1cccnc1)c1cccc(C(F)(F)F)c1
  MRT: 6.8 h
  Vd: 0.43 L/kg
  clearance: 1.05 mL/min/kg
  half-life: 7.54 h
  fraction unbound: 0.033

## Cc1c(C)c2ccc(OCCCN3CCN(Cc4ccc(Cl)cc4)CC3)cc2oc1=O
  MRT: 16.5 h
  Vd: 1.3 L/kg
  clearance: 1.3 mL/min/kg
  half-life: 19.2 h
  fraction unbound: 0.05

## O=C(/C=C/c1ccc(O)c(O)c1)O[C@@H]1C[C@](OC(=O)/C=C/c2ccc(O)c(O)c2)(C(=O)O)C[C@@H](O)[C@H]1O
  MRT: 1.5 h
  Vd: 0.79 L/kg
  clearance: 8.7 mL/min/kg
  half-life: 1.37 h

## C=C(C)[C@@H]1CCC(C)=C[C@H]1c1c(O)cc(CCCCC)cc1O
  MRT: 8.23 h
  Vd: 6.69 L/kg
  clearance: 13.6 mL/min/kg
  half-life: 23.8 h

## C[C@H](Cc1cc2c(c(C(N)=O)c1)N(CCCO)CC2)NCCOc1ccccc1OCC(F)(F)F
  clearance: 2.8 mL/min/kg
  half-life: 3.6 h
  fraction unbound: 0.05

## C/C=C(\C)C(=O)O[C@H]1[C@H](OC(C)=O)[C@]2(CO)[C@H](O)C[C@]3(C)C(=CC[C@@H]4[C@@]5(C)CC[C@H](O[C@@H]6OC(C(=O)O)[C@@H](O[C@@H]7O[C@H](CO)[C@@H](O)[C@H](O)[C@H]7O)[C@H](O)[C@H]6O[C@@H]6O[C@H](CO)[C@@H](O)[C@H](O)[C@H]6O)[C@](C)(CO)[C@@H]5CC[C@]43C)[C@@H]2CC1(C)C (some centres undefined)
  MRT: 2.85 h
  Vd: 0.28 L/kg
  clearance: 1.65 mL/min/kg
  half-life: 2.4 h

## CCCC(C)(COC(N)=O)COC(N)=O
  MRT: 19 h
  Vd: 0.7 L/kg
  clearance: 0.6 mL/min/kg
  half-life: 14 h
  fraction unbound: 1

## CC(C)C1NC(=O)C(CCCCN)NC(=O)C(Cc2c[nH]c3ccccc23)NC(=O)C(Cc2ccc(O)cc2)NC(=O)C(NC(=O)C(N)Cc2ccc3ccccc3c2)CSSCC(C(=O)NC(C(N)=O)[C@@H](C)O)NC1=O (stereo partly drawn) (H-[ξ2Nal][ξC][ξY][ξW][ξK][ξV][ξC][ξThr(3R)]-NH2; disulfide 2-7)
  MRT: 0.57 h
  Vd: 0.2 L/kg
  clearance: 5.7 mL/min/kg
  half-life: 1.03 h

## CCN(CC)C(=O)N[C@H]1C=C2c3cccc4[nH]cc(c34)C[C@H]2N(C)C1
  MRT: 2.17 h
  Vd: 1.73 L/kg
  clearance: 13.3 mL/min/kg
  half-life: 1.8 h

## CCCCC[C@@H](O)CC[C@H]1[C@@H]2Cc3cccc(OCC(=O)O)c3C[C@@H]2C[C@@H]1O
  MRT: 0.36 h
  Vd: 0.23 L/kg
  clearance: 10.7 mL/min/kg
  half-life: 0.82 h
  fraction unbound: 0.09

## COc1cc2c(cc1O)CCN[C@]21CS[C@@H]2c3c(OC(C)=O)c(C)c4c(c3[C@H](COC1=O)N1[C@@H]2[C@H]2c3c(cc(C)c(OC)c3O)C[C@@H]([C@@H]1O)N2C)OCO4
  MRT: 35 h
  Vd: 25 L/kg
  clearance: 12 mL/min/kg
  half-life: 44 h
  fraction unbound: 0.06

## COc1c(N2CCC/C(=C(\F)CN)C2)c(F)cc2c(=O)c(C(=O)O)cn(C3CC3)c12
  MRT: 24.2 h
  Vd: 1.13 L/kg
  clearance: 0.78 mL/min/kg
  half-life: 19.6 h
  fraction unbound: 0.34

## CC(C)N(CC[C@H](c1ccccc1)c1cc(CO)ccc1O)C(C)C
  Vd: 2.41 L/kg
  fraction unbound: 0.5

## Nc1cc(N2CCCCC2)nc(N)[n+]1[O-]
  MRT: 1.3 h
  Vd: 0.9 L/kg
  clearance: 11.5 mL/min/kg
  half-life: 1.5 h

## C=CC[N+]1([C@H]2C[C@H]3[C@@H]4CC[C@H]5C[C@H](O)[C@@H](N6CCOCC6)C[C@]5(C)[C@H]4CC[C@]3(C)[C@H]2OC(C)=O)CCCC1
  MRT: 0.95 h
  Vd: 0.21 L/kg
  clearance: 3.7 mL/min/kg
  half-life: 1.6 h
  fraction unbound: 0.54

## CCOc1ccccc1O[C@H](c1ccccc1)[C@H]1CNCCO1
  MRT: 13 h
  Vd: 0.65 L/kg
  clearance: 0.82 mL/min/kg
  half-life: 10 h

## CC(c1nc(-c2ccc(C#N)cc2)cs1)[C@@](O)(Cn1cncn1)c1cc(F)ccc1F (some centres undefined)
  MRT: 106 h
  Vd: 5.37 L/kg
  clearance: 0.85 mL/min/kg
  half-life: 86.9 h
  fraction unbound: 0.01

## CCCCCCC(C)(C)c1cc(O)c2c(c1)OC(C)(C)[C@H]1CC=C(CO)C[C@H]21
  MRT: 3.94 h
  Vd: 5.06 L/kg
  clearance: 21.4 mL/min/kg
  half-life: 7.33 h

## CC(C)(O)[C@@H]1CC[C@](C)([C@H]2[C@@H](O)C[C@@]3(C)[C@@H]4C[C@H](O[C@@H]5O[C@H](CO)[C@@H](O)[C@H](O)[C@H]5O)[C@H]5C(C)(C)[C@@H](O[C@@H]6OC[C@@H](O)[C@H](O)[C@H]6O)CC[C@@]56C[C@@]46CC[C@]23C)O1
  MRT: 2.78 h
  Vd: 0.12 L/kg
  clearance: 0.74 mL/min/kg
  half-life: 2.65 h
  fraction unbound: 0.14

## N#Cc1ccccc1-c1cc(-c2ccccn2)cn(-c2ccccc2)c1=O
  MRT: 229 h
  Vd: 1.36 L/kg
  clearance: 0.1 mL/min/kg
  half-life: 183 h
  fraction unbound: 0.05

## CCCCCCCCOCCOC(=O)CN(CC(=O)O)c1ccccc1OCCOc1ccccc1N(CC(=O)O)CC(=O)OCCOCCCCCCCC
  MRT: 1.3 h
  Vd: 1.1 L/kg
  clearance: 14 mL/min/kg
  half-life: 3.5 h
